# Active and inactive are the calls of the source. The calls are words filed in the database; no cut-off is given here. *1 amine or outer side, *2 acyl side, *3 side chain or, on linkers, in order; H or OH if unused. Where a SMILES comes first, the peptide text is derived from it. Bridges are numbered along the chain shown (N, C = ends). Roman numbers before positions name the chains, in order. [ ]: non-standard residue; d: D form. Actinocin(9to1) = Cc1c2oc3c(C)ccc(C(=O)[*:1])c3nc-2c(C(=O)[*:2])c(N)c1=O; NMeV = CN[C@H](C(=O)O)C(C)C; Sar = CNCC(=O)O
# Columns and labels:
# C6 [1] = experiment: Cytotoxicity against rat C6 cells at 50 ug/mL to 2.5 mg/mL after 3 days treated 4 hrs before db-cAMP challenge by MTT assay; assay type: functional, cell-based
# C6 [2] = experiment: Cytotoxicity against rat C6 cells assessed as cell release at 50 ug/mL to 2.5 mg/mL after 5 hrs by MTT assay in absence of db-cAMP; assay type: functional, cell-based
# C6 [3] = experiment: Inhibition of tubulin polymerization in rat C6 cells at 50 ug/mL to 2.5 mg/mL after 4 hrs; assay type: cell-based
# C6 [4] = experiment: Cytotoxicity against rat C6 cells after 3 days treated 4 hrs before db-cAMP challenge by MTT assay; assay type: functional; conditions: read-out: LC50 (the source's name)
# [5] = Inhibition of tubulin polymerization in rat C6 cells after 4 hrs; assay type: cell-based
SMILES,Activity (C6 [1]),Activity (C6 [2]),Activity (C6 [3]),CC50 (C6 [4]) [µM],EC50 [5] [µM]
"Cc1c2oc3c(C)ccc(C(=O)N[C@@H]4C(=O)N[C@H](C(C)C)C(=O)N5CCC[C@H]5C(=O)N(C)CC(=O)N(C)[C@@H](C(C)C)C(=O)O[C@@H]4C)c3nc-2c(C(=O)N[C@@H]2C(=O)N[C@H](C(C)C)C(=O)N3CCC[C@H]3C(=O)N(C)CC(=O)N(C)[C@@H](C(C)C)C(=O)O[C@@H]2C)c(N)c1=O (I: T[dV]P[Sar][NMeV] / II: T[dV]P[Sar][NMeV]; ester I:1-I:C, II:1-II:C; linker I:N-II:N via Actinocin(9to1))",inactive,inactive,inactive,–,–
CO[C@@]12[C@H](COC(N)=O)C3=C(C(=O)C(C)=C(N)C3=O)N1C[C@@H]1N[C@@H]12,inactive,inactive,inactive,–,–
Clc1ccc(C(c2ccccc2Cl)C(Cl)Cl)cc1 (stereo not drawn),inactive,inactive,inactive,–,–
N[C@@H](Cc1ccc(N(CCCl)CCCl)cc1)C(=O)O,inactive,inactive,inactive,–,–
COc1cc([C@@H]2c3cc4c(cc3[C@@H](O[C@@H]3O[C@@H]5CO[C@@H](c6cccs6)O[C@H]5[C@H](O)[C@H]3O)[C@H]3COC(=O)[C@H]23)OCO4)cc(OC)c1O,inactive,inactive,inactive,–,–
COc1cc([C@@H]2c3cc4c(cc3[C@@H](O[C@@H]3O[C@@H]5CO[C@@H](C)O[C@H]5[C@H](O)[C@H]3O)[C@H]3COC(=O)[C@H]23)OCO4)cc(OC)c1O [ETOPOSIDE],–,inactive,–,0.12,680
CC(=O)O[C@H]1C(=O)[C@@]2(C)[C@H]([C@H](OC(=O)c3ccccc3)[C@]3(O)C[C@H](OC(=O)[C@H](O)[C@@H](NC(=O)c4ccccc4)c4ccccc4)C(C)=C1C3(C)C)[C@]1(OC(C)=O)CO[C@@H]1C[C@@H]2O [PACLITAXEL],–,–,–,0.023,–
COc1cccc2c1C(=O)c1c(O)c3c(c(O)c1C2=O)C[C@@](O)(C(=O)CO)C[C@@H]3O[C@H]1C[C@H](N)[C@H](O)[C@H](C)O1,inactive,inactive,inactive,–,–
CN(N=O)C(=O)N[C@@H](C=O)[C@@H](O)[C@H](O)[C@H](O)CO,inactive,inactive,inactive,–,–
C[C@@H]1C[C@@H]([C@H](O)CC2CC(=O)NC(=O)C2)C(=O)[C@@H](C)C1,inactive,inactive,inactive,–,–
CC[C@]1(O)C[C@H]2CN(CCc3c([nH]c4ccccc34)[C@@](C(=O)OC)(c3cc4c(cc3OC)N(C=O)[C@H]3[C@@](O)(C(=O)OC)[C@H](OC(C)=O)[C@]5(CC)C=CCN6CC[C@]43[C@@H]65)C2)C1 [VINCRISTINE],–,inactive,–,0.32,6.2
CCn1cc(C(=O)O)c(=O)c2ccc(C)nc21,inactive,inactive,inactive,–,–
C=CC[C@@H](CC/C(C)=C/C=C/CC/C=C\[C@@H]1CSC([C@@H]2C[C@@H]2C)=N1)OC [CURACIN A],–,inactive,–,0.011,0.51
O=NN(CCCl)C(=O)NCCCl,inactive,inactive,inactive,–,–
COc1cccc2c1C(=O)c1c(O)c3c(c(O)c1C2=O)C[C@@](O)(C(C)=O)C[C@@H]3O[C@H]1C[C@H](N)[C@H](O)[C@H](C)O1,inactive,inactive,inactive,–,–
CC[C@]1(O)C[C@@H]2CN(CCc3c([nH]c4ccccc34)[C@@](C(=O)OC)(c3cc4c(cc3OC)N(C)[C@H]3[C@@](O)(C(=O)OC)[C@H](OC(C)=O)[C@]5(CC)C=CCN6CC[C@]43[C@@H]65)C2)C1 [VINBLASTINE],–,inactive,–,0.066,8.2
C=C1[C@@H](C)[C@H]2[C@H](Cc3ccccc3)NC(=O)[C@]23OC(=O)/C=C/[C@H](O)CCC[C@@H](C)C/C=C/[C@H]3[C@@H]1O,inactive,inactive,inactive,–,–
CO[C@@H]1[C@@H](OC(N)=O)[C@@H](O)[C@H](Oc2ccc3c(O)c(NC(=O)c4ccc(O)c(CC=C(C)C)c4)c(=O)oc3c2C)OC1(C)C,inactive,inactive,inactive,–,–
O=C1c2c(O)ccc(O)c2C(=O)c2c(NCCNCCO)ccc(NCCNCCO)c21,inactive,inactive,inactive,–,–
COc1cc2c(c(OC)c1OC)-c1ccc(OC)c(=O)cc1[C@@H](NC(C)=O)CC2 [COLCHICINE],–,inactive,–,0.2,0.1
